According to patent publication US9809623B2, “α4β7 peptide monomer and dimer antagonists” (Protagonist Therapeutics, Inc., priority 2014, dated 2017):
Numbered stars: 1 amine (or outer) side, 2 acyl side, 3 side chain; on linkers, the order of the positions; unused ones are H or OH. Bridge positions count the residues as written; N and C are the ends. Square brackets hold non-standard residues; d marks the D form. Peptide text beside a SMILES is read from it. I, II: the chains in the order shown. Phe(4-tBu) = CC(C)(C)c1ccc(C[C@H](N)C(=O)O)cc1; Diglycolyl = O=C(COCC(=O)[*:2])[*:1]; NMeR = CN[C@@H](CCCNC(=N)N)C(=O)O; β3hE = N[C@@H](CCC(=O)O)CC(=O)O; Pen = CC(C)(S)[C@H](N)C(=O)O

What was measured:
rh integrin α4β7 = target: T1, rh integrin α4β7 (Homo sapiens, UniProt P13612+P26010); test: α4β7-MAdCAM Competition ELISA; type: binding; settings: Table 4-B; read-out: ELISA α4β7 IC50
T1 construct: purchased R&D Systems 5397-A30
T1 sequence (P13612 34-977 limits assumed): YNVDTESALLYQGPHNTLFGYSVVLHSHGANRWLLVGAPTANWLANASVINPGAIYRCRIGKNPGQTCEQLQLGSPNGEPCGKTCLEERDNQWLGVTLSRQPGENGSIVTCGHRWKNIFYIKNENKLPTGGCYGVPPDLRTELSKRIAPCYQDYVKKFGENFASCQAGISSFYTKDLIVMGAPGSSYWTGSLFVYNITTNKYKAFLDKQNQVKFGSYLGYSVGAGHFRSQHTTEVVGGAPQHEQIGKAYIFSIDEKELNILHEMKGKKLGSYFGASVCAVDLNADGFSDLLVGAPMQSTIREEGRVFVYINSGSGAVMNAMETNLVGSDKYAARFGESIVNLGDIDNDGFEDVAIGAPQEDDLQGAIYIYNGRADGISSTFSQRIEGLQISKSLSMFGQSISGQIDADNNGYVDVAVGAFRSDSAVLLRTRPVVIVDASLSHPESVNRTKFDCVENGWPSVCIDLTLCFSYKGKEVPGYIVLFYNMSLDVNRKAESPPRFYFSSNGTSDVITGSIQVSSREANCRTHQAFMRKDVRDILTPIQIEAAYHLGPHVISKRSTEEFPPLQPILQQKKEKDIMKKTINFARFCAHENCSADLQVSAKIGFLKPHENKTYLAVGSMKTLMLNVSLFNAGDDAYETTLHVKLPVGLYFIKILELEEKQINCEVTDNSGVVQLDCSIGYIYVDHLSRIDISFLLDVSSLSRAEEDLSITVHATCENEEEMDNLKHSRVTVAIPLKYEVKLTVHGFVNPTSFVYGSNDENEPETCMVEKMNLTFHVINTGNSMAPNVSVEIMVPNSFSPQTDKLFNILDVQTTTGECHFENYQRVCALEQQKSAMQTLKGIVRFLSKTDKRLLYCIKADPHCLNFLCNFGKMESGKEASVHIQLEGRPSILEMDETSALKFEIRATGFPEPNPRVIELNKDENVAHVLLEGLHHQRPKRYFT
T1 sequence (P26010 20-723 limits assumed): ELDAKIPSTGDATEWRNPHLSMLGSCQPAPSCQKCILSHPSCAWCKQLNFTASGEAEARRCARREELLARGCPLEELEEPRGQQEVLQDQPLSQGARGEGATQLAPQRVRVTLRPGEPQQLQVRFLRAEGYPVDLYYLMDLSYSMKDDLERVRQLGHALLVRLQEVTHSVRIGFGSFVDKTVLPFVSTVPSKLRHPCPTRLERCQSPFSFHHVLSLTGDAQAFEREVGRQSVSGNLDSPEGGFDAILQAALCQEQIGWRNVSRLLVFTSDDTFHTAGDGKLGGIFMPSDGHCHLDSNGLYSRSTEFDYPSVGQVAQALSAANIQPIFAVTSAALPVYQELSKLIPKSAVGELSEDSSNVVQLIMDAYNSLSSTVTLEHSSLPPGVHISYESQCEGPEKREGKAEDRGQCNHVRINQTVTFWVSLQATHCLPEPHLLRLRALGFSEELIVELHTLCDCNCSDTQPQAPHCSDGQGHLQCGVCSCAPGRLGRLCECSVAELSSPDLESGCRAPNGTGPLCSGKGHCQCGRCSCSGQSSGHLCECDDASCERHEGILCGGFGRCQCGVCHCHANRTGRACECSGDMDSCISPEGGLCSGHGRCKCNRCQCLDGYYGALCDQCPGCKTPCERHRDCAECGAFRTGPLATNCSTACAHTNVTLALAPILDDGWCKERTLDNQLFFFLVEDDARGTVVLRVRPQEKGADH
How it was run: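 Competition read-out was A450 after anti-human IgG1-HRP and TMB detection of bound recombinant human MAdCAM-1 (10 nM final). Peptides were serially diluted 3-fold from a final 10 μM and equilibrated 1 h at room temperature on nickel-captured α4β7 (800 ng/well). The buffer was Tris pH 7.6 with 1 mM Mn2+ or Mg2+.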

[1] = Simulated Intestinal Fluid (SIF) Stability Assay; type: in vitro ADME, porcine; settings: Table 4-C, t1/2
How it was run: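 Intestinal stability: percent peptide remaining over time, by LC-MS/MS peak-area ratio to internal standard, fitted to first-order decay for half-life. Conditions: 22 μM peptide, 1% pancreatin in pH 6.5 blank FASSIF, 37 °C.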

α4β7 = α4β7 (Homo sapiens, UniProt P13612+P26010); test: α4β7-MAdCAM Cell Adhesion Assay (RPMI 8866 human cells); type: cell-based; set-up: host or cells: RPMI 8866 human B lymphoblastoid cells; settings: Table 4-B; read-out: Cell Adhesion α4β7 IC50
Chain of α4β7 (P13612 34-1032): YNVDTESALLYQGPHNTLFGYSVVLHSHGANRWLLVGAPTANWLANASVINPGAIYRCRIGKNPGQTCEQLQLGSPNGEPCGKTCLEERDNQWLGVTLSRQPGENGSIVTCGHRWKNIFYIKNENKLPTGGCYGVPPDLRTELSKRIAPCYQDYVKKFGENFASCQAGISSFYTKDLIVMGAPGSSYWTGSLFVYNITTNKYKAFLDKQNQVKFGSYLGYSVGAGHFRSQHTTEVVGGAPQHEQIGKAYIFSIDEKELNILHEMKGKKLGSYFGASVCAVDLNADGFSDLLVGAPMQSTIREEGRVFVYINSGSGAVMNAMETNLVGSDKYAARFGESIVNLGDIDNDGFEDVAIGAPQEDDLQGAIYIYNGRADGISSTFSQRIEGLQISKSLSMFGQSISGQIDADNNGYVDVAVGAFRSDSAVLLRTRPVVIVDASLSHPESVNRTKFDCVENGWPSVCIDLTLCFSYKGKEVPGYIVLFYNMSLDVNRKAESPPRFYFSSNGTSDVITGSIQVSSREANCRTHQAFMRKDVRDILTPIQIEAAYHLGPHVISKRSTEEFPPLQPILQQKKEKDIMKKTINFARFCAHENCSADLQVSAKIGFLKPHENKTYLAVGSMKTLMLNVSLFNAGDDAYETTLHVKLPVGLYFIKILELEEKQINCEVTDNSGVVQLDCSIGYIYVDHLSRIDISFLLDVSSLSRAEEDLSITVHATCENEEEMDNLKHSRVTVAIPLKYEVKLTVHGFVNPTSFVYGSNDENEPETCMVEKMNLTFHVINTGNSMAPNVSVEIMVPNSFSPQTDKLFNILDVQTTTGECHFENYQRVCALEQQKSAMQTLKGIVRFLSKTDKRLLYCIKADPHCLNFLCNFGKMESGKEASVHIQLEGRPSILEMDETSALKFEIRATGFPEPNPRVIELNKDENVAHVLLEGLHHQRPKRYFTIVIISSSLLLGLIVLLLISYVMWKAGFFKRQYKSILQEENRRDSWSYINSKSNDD
Chain of α4β7 (P26010 20-798): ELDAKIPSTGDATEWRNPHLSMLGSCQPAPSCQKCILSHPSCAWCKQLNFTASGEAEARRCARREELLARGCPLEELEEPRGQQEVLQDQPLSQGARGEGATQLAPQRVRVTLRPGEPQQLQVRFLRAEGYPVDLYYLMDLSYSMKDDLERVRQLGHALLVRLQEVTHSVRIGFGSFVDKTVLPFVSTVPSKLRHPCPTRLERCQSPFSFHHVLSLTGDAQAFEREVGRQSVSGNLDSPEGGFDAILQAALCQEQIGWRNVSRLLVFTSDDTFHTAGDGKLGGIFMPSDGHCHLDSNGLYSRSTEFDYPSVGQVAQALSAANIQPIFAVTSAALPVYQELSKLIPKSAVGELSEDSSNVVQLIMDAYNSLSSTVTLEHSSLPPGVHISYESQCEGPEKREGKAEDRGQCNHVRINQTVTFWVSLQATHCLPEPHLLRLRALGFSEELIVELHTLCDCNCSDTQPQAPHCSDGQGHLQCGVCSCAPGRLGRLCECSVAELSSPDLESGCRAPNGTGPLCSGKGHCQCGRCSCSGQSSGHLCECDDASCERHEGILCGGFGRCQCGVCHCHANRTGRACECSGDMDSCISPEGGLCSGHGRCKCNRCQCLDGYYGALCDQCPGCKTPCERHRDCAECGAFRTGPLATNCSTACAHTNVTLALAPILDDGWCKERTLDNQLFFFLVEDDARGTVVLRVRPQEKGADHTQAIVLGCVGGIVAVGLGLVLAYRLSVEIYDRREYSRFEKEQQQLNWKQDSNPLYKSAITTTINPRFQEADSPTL
How it was run: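 Adhesion read-out: MTT absorbance at 570 nm minus no-cell wells, after three washes. Plates coated with rh MAdCAM-1/Fc received peptide dilutions plus 200,000 RPMI 8866 cells in Mn2+ (1 mM)-supplemented DMEM, 0.1% BSA, HEPES pH 7, incubated 30-45 min, 37 °C.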

## CC(=O)N[C@@H]1C(=O)N(C)[C@@H](CCCNC(=N)N)C(=O)N[C@@H](CO)C(=O)N[C@@H](CC(=O)O)C(=O)N[C@@H]([C@@H](C)O)C(=O)N[C@@H](CC(C)C)C(=O)N[C@H](C(=O)N[C@@H](Cc2ccc(C(C)(C)C)cc2)C(=O)N[C@@H](CCC(=O)O)CC(=O)N[C@H](CCCCNC(=O)COCC(=O)NCCCC[C@@H](NC(=O)C[C@H](CCC(=O)O)NC(=O)[C@H](Cc2ccc(C(C)(C)C)cc2)NC(=O)[C@H]2NC(=O)[C@H](CC(C)C)NC(=O)[C@H]([C@@H](C)O)NC(=O)[C@H](CC(=O)O)NC(=O)[C@H](CO)NC(=O)[C@H](CCCNC(=N)N)N(C)C(=O)[C@@H](NC(C)=O)C(C)(C)SSC2(C)C)C(N)=O)C(N)=O)C(C)(C)SSC1(C)C [compound 218, [Ac-Pen-(N-Me-Arg)-Ser-Asp-Thr-Leu-Pen-Phe(4-tBu)-(β-homoGlu)-(D-Lys)-NH2]2-DIG] (I: Ac-[Pen][NMeR]SDTL[Pen][Phe(4-tBu)][β3hE][dK]-NH2 / II: Ac-[Pen][NMeR]SDTL[Pen][Phe(4-tBu)][β3hE][dK]-NH2; disulfide I:1-I:7, II:1-II:7; linker I:10-II:10 via Diglycolyl)
Rh integrin α4β7
  IC50: 2.8 nM
[1]
  SIF (porcine), printed in hr in the cell: 11 h
α4β7
  IC50: 0.78 nM
